The results in this text go back to patent US11014917B2, “5-fluoro-c-(aryl or heterocyclyl)-glycoside derivatives useful as dual SGLT1 / SGLT2 modulators” (Janssen Pharmaceutica NV, priority 2017, dated 2021).

Molecules are shown by their SMILES.

Test [1] deals with T1, human SGLT1 (Homo sapiens, UniProt P13866).
T1 construct: expressed in transfected cells
T1 sequence (P13866 1-664): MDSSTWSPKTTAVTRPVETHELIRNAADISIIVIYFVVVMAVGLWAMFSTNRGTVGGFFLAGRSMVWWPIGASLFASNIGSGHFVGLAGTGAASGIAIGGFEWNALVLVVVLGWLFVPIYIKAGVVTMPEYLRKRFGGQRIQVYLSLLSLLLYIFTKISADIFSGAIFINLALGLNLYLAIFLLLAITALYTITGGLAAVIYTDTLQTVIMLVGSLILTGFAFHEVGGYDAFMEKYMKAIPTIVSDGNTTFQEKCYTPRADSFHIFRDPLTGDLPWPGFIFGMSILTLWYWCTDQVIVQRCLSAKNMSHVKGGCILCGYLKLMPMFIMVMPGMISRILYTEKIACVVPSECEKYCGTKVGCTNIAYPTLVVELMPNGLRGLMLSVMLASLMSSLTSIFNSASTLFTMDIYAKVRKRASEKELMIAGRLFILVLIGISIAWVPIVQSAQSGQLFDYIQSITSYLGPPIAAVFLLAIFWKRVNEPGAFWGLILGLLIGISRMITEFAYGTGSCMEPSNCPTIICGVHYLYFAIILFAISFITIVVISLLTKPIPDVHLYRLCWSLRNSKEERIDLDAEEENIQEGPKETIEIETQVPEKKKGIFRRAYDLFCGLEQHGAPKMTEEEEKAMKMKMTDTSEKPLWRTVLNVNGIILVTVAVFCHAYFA
Briefly: SGLT1 assay: Na-dependent 14C-AMG uptake in CHO-K1 cells stably expressing human SGLT1. Type of test: cell-based. To be noted: for IC50: average if tested more than once. The gist of the method: (§1)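 Stable CHO-K1 lines were pretreated 24 h with 10 mM Na-butyrate, then compound (0.001–10 μM) for 10 min in Na+ buffer (137 mM NaCl, pH 7.4). Uptake of 14C-AMG (500 μM final, 0.07 μCi/well) over 2 h at 37° C measured by scintillation; %-inhibition or IC50.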

The target of test [2] is T2, human SGLT2 (Homo sapiens, UniProt P31639).
T2 construct: expressed in transfected cells
T2 sequence (P31639 1-672): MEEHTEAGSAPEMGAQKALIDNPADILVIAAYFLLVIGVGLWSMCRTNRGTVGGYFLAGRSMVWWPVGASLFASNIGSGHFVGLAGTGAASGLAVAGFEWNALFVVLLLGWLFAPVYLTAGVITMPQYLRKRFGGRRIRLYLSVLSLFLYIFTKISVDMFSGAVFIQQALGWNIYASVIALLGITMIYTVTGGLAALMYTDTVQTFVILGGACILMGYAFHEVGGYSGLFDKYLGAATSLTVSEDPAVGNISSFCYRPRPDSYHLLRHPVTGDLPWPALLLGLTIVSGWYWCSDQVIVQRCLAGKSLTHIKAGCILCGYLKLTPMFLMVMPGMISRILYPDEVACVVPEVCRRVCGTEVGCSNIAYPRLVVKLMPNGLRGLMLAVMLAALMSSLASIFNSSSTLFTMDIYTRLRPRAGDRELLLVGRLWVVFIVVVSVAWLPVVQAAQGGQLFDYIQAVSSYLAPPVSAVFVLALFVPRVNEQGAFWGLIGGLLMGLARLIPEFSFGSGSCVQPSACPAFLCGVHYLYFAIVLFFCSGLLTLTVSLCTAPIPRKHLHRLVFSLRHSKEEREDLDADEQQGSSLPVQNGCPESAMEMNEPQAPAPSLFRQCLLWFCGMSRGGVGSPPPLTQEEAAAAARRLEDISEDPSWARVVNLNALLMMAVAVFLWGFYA
The experiment in a line: SGLT2 assay: Na-dependent 14C-AMG uptake in CHO-K1 cells stably expressing human SGLT2. It is filed as cell-based. As to conditions: for IC50: average if tested more than once. The method in brief: as §1

As to `COc1cc(C)c(Cc2cc3c(s2)CCN(C(=O)c2nccs2)C3)cc1[C@@H]1O[C@H](CO)[C@@H](F)[C@H](O)[C@H]1O` [Compound 112, (2-(5-((2S,3R,4R,5S,6R)-5-fluoro-3,4-dihydroxy-6-(hydroxymethyl)-tetrahydro-2H-pyran-2-yl)-4-methoxy-2-methylbenzyl)-6,7-dihydrothieno[3,2-c]pyridin-5(4H)-yl)(thiazol-2-yl)methanone], the half-inhibitory concentration (IC50) in test [1] amounted to 0.376 µM; in test [2] it was 0.023 µM.
On to `Cc1cnc(N2CCc3sc(Cc4cc([C@@H]5O[C@H](CO)[C@@H](F)[C@H](O)[C@H]5O)ccc4C)cc3C2)s1` [Compound 113], for which the SGLT1 %-inhibition in test [1] (@ 0.3 μM) came out at 21.0% @ 0.3 μM. Moreover, the SGLT2 %-inhibition in test [2] (@ 0.3 μM) is reported as 53.9% @ 0.3 μM.
As for `N#CN1CCc2sc(Cc3cc([C@@H]4O[C@H](CO)[C@@H](F)[C@H](O)[C@H]4O)c(O)cc3Cl)cc2C1` [Compound 114], the IC50 in test [1] came to 0.109 µM; in test [2], 0.005 µM.
In the case of `CCc1cc(OC)c([C@@H]2O[C@H](CO)[C@@H](F)[C@H](O)[C@H]2O)cc1Cc1cc2c(s1)CCN(C#N)C2` [Compound 115], in test [1] (@ 0.3 μM), the SGLT1 %-inhibition came to 35.6% @ 0.3 μM. In addition, in test [2] (@ 0.3 μM), the SGLT2 %-inhibition is reported as 79.3% @ 0.3 μM.
Take `Cc1ccc([C@@H]2O[C@H](CO)[C@@H](F)[C@H](O)[C@H]2O)cc1Cc1cc2c(s1)CCCC2=O` [Compound 116]: the SGLT1 %-inhibition in test [1] (@ 0.3 μM) turned out to be 11.5% @ 0.3 μM. The same compound gave an SGLT2 %-inhibition in test [2] (@ 0.3 μM) of 78.0% @ 0.3 μM.
As for `Cc1cnc(N2CCc3sc(Cc4cc([C@@H]5O[C@H](CO)[C@@H](F)[C@H](O)[C@H]5O)c(O)cc4C)cc3C2)s1` [Compound 117], the SGLT1 %-inhibition in test [1] (@ 0.3 μM) is 44.3% @ 0.3 μM. This compound also gave an SGLT2 %-inhibition in test [2] (@ 0.3 μM) of 69.9% @ 0.3 μM.
Regarding `CCc1cc(O)c([C@@H]2O[C@H](CO)[C@@H](F)[C@H](O)[C@H]2O)cc1Cc1cc2c(s1)CCN(C#N)C2` [Compound 118], the IC50 in test [1] was determined as 0.05 µM; in test [2], 0.002 µM.
For the compound `Cc1cc(O)c([C@@H]2O[C@H](CO)[C@@H](F)[C@H](O)[C@H]2O)cc1Cc1cc2c(s1)CCCC2=O` [Compound 119], the IC50 in test [1] amounted to 0.156 µM; in test [2], 0.011 µM.
For `COc1ccc([C@@H]2O[C@H](CO)[C@@H](F)[C@H](O)[C@H]2O)cc1Cc1cc2c(s1)CCN(C#N)C2` [Compound 120], the SGLT1 %-inhibition in test [1] (@ 0.3 μM) turned out to be 6.6% @ 0.3 μM. The compound also gave an SGLT2 %-inhibition in test [2] (@ 0.3 μM) of 54.7% @ 0.3 μM.
Turning to `N#CN1CCc2sc(Cc3cc([C@@H]4O[C@H](CO)[C@@H](F)[C@H](O)[C@H]4O)ccc3Cl)cc2C1` [Compound 121], the SGLT1 %-inhibition in test [1] (@ 0.3 μM) came out at 20.5% @ 0.3 μM. The compound also returned an SGLT2 %-inhibition in test [2] (@ 0.3 μM) of 79.8% @ 0.3 μM.
For `Cc1cnc(N2CCc3sc(Cc4cc([C@@H]5O[C@H](CO)[C@@H](F)[C@H](O)[C@H]5O)ccc4C)cc3C2)s1` [Compound 122], in that order: 31.7% @ 0.3 μM and 63.6% @ 0.3 μM.
Take `COc1cc(C)c(Cc2cc3c(s2)CCN(c2ncc(C)s2)C3)cc1[C@@H]1O[C@H](CO)[C@@H](F)[C@H](O)[C@H]1O` [Compound 123]: the IC50 in test [1] came to 1.36 µM; in test [2], 0.1 µM.
For `OC[C@H]1O[C@@H](c2cc3c(c(Cc4ccc5c(c4)SCCO5)c2)OCC3)[C@H](O)[C@@H](O)[C@@H]1F` [Compound 124], in that order: 0.698 µM and 0.147 µM.
For `OC[C@H]1O[C@@H](c2cc(Cc3ccc4c(c3)CCCO4)c(Cl)c3c2OCC3)[C@H](O)[C@@H](O)[C@@H]1F` [Compound 125, (2S,3R,4R,5S,6R)-2-(4-chloro-5-(chroman-6-ylmethyl)-2,3-dihydrobenzofuran-7-yl)-5-fluoro-6-(hydroxymethyl)-tetrahydro-2H-pyran-3,4-diol] the same measures were 0.227 µM and 0.017 µM.
For the compound `COc1c(Cc2ccc3c(c2)CCCO3)cc([C@@H]2O[C@H](CO)[C@@H](F)[C@H](O)[C@H]2O)c2c1CCO2` [Compound 126, (2S,3R,4R,5S,6R)-2-(5-(chroman-6-ylmethyl)-4-methoxy-2,3-dihydrobenzofuran-7-yl)-5-fluoro-6-(hydroxymethyl)-tetrahydro-2H-pyran-3,4-diol], the values for the inhibition at 0.3 µM in test [1] (@ 0.3 μM) and in test [2] (@ 0.3 μM) were 21.7% and 16.8%, respectively.
Regarding `OC[C@H]1O[C@@H](c2cc(Cc3ccc4c(c3)SCCO4)c(Cl)c3c2OCC3)[C@H](O)[C@@H](O)[C@@H]1F` [Compound 127], the SGLT1 %-inhibition in test [1] (@ 0.3 μM) was determined as 63.2% @ 0.3 μM. The SGLT2 %-inhibition in test [2] (@ 0.3 μM) was found to be 78.4% @ 0.3 μM.
As for `COc1c(Cc2ccc3c(c2)SCCO3)cc([C@@H]2O[C@H](CO)[C@@H](F)[C@H](O)[C@H]2O)c2c1CCO2` [Compound 128, (2S,3R,4R,5S,6R)-2-(5-((2,3-dihydrobenzo[b][1,4]oxathiin-6-yl)methyl)-4-methoxy-2,3-dihydrobenzofuran-7-yl)-5-fluoro-6-(hydroxymethyl)-tetrahydro-2H-pyran-3,4-diol], the half-maximal inhibitory concentration (IC50) in test [1] came to 0.187 µM; in test [2] it was 0.062 µM.
For `Cc1cc(O)c([C@@H]2O[C@H](CO)[C@@H](F)[C@H](O)[C@H]2O)cc1Cc1cc2c(s1)C(=O)CCO2` [Compound 129], in that order: 0.176 µM and 0.007 µM.
As to `Cc1c(Cc2ccc3c(c2)CCCO3)cc([C@@H]2O[C@H](CO)[C@@H](F)[C@H](O)[C@H]2O)c2c1CCO2` [Compound 130], in test [1] (@ 0.3 μM), the SGLT1 %-inhibition came out at 44.8% @ 0.3 μM. In test [2] (@ 0.3 μM), the SGLT2 %-inhibition was found to be 81.6% @ 0.3 μM.
In the case of `Cc1c([C@@H]2O[C@H](CO)[C@@H](F)[C@H](O)[C@H]2O)cc(Cc2ccc3c(c2)SCCO3)c2c1CCO2` [Compound 131], the IC50 in test [1] amounted to 0.231 µM; in test [2], 0.012 µM.
For `Cc1c(Cc2ccc3c(c2)SCCO3)cc([C@@H]2O[C@H](CO)[C@@H](F)[C@H](O)[C@H]2O)c2c1CCO2` [Compound 132] the same measures were 0.135 µM and 0.023 µM.
Consider `OC[C@H]1O[C@@H](c2cc3c(c(Cc4ccc(OCF)cc4)c2)OCC3)[C@H](O)[C@@H](O)[C@@H]1F` [Compound 133], for which the figures for the IC50 in test [1] and in test [2] were 0.236 µM and 0.006 µM, respectively.
For `CCc1ccc(Cc2cc([C@@H]3O[C@H](CO)[C@@H](F)[C@H](O)[C@H]3O)cc3c2OCC3)cc1` [Compound 134], in that order: 0.254 µM and 0.012 µM.
In the case of `CCc1ccc(Cc2cc([C@@H]3O[C@H](CO)[C@@H](F)[C@H](O)[C@H]3O)c(OC)c3c2OCC3)cc1` [Compound 135], the IC50 in test [1] turned out to be 0.085 µM; in test [2], 0.008 µM.
`Cc1cc(N2CCc3sc(Cc4cc([C@@H]5O[C@H](CO)[C@@H](F)[C@H](O)[C@H]5O)ccc4C)cc3C2)c(C)s1` [Compound 138] gave an SGLT1 %-inhibition in test [1] (@ 0.3 μM) of 37.5% @ 0.3 μM. For the same compound, the SGLT2 %-inhibition in test [2] (@ 0.3 μM) is 46.7% @ 0.3 μM.
For `COc1c([C@@H]2O[C@H](CO)[C@@H](F)[C@H](O)[C@H]2O)cc(Cc2ccc(OCF)cc2)c2c1CCO2` [Compound 142], in that order: 59.8% @ 0.3 μM and 85.8% @ 0.3 μM.
Consider `COc1c(Cc2ccc3c(c2)CC3)cc([C@@H]2O[C@H](CO)[C@@H](F)[C@H](O)[C@H]2O)c2c1CCO2` [Compound 152], for which the half-maximal inhibitory concentration (IC50) in test [1] and in test [2] was 0.006 µM in each case.
Regarding `OC[C@H]1O[C@@H](c2cc(Cc3ccc4c(c3)OCCO4)c3c(c2)OCC3)[C@H](O)[C@@H](O)[C@@H]1F` [Compound 153], the IC50 in test [1] amounted to 0.05 µM; in test [2] it was 0.058 µM.
For the compound `OC[C@H]1O[C@@H](c2cc(Cc3ccc4c(c3)OCCO4)c(Cl)c3c2CCO3)[C@H](O)[C@@H](O)[C@@H]1F` [Compound 154], the IC50 in test [1] is 0.042 µM; in test [2] it was 0.002 µM.
For the compound `[2H]C([2H])(c1ccc2c(c1)OCCO2)c1cc([C@@H]2O[C@H](CO)[C@@H](F)[C@H](O)[C@H]2O)ccc1CC` [Compound 156], the values for the IC50 in test [1] and in test [2] were 0.086 µM and 0.01 µM, respectively.

As a reminder, the IC50 is the midpoint of a concentration-inhibition curve. In general, inhibition refers to the change of the read-out against control, counted positive when it falls.
